Measurements taken from patent publication US4132778A, “Antibiotic A-32887” (Eli Lilly and Company, priority 1977, dated 1979).

Columns and labels:
[1] = test system: Pasteurella multocida (bovine); test: Standard agar-dilution assay (MIC), Table VI; type: cell-based; conditions: Na-K salt
Source text: Antibiotic A-32887 inhibits the growth of pathogenic bacteria, especially gram-positive bacteria. Table VI summarizes the minimal inhibitory concentrations (MIC), as measured by standard agar-dilution assays, at which A-32887 (Na-K salt) inhibits certain bacteria.

[2] = test system: Diplococcus pneumoniae; test: Conventional disc-diffusion method, Table VII; type: cell-based
Source text: (§1) The activity of A-32887 (Na-K salt) against illustrative bacteria, as measured by the conventional disc-diffusion method, is summarized in Table VI.

[3] = test system: Staphylococcus aureus 3055; test: Conventional disc-diffusion method, Table VII; type: cell-based
Source text: as §1

[4] = test system: Streptococcus pyogenes (Group A); test: Conventional disc-diffusion method, Table VII; type: cell-based
Source text: as §1

[5] = test system: Streptococcus sp. (Group D); test: Conventional disc-diffusion method, Table VII; type: cell-based
Source text: as §1

[6] = test system: Staphylococcus aureus 3074 (Penicillin G-resistant); test: Conventional disc-diffusion method, Table VII; type: cell-based
Source text: as §1
*Penicillin G-resistant

[7] = test system: Staphylococcus aureus 3130 (Methicillin-resistant); test: Conventional disc-diffusion method, Table VII; type: cell-based
Source text: as §1
**Methicillin-resistant

[8] = test system: Clostridium perfringens; type: cell-based; conditions: 24-hour incubation
[9] = test system: Eubacterium aerofaciens; test: Standard agar-dilution assay, anaerobic bacteria, Table IX; type: cell-based; conditions: 24-hour incubation
[10] = test system: Peptococcus asaccharolyticus; test: as above; type: cell-based; conditions: 24-hour incubation
[11] = test system: Peptococcus prevoti; test: as above; type: cell-based; conditions: 24-hour incubation
[12] = test system: Peptostreptococcus anaerobius; test: as above; type: cell-based; conditions: 24-hour incubation
[13] = test system: Peptostreptococcus intermedius; test: as above; type: cell-based; conditions: 24-hour incubation
[14] = test system: Propionibacterium acnes; test: as above; type: cell-based; conditions: 24-hour incubation
[15] = test system: Bacteriodes fragilis ssp fragilis 1877; test: as above; type: cell-based; conditions: 24-hour incubation
[16] = test system: Bacteriodes fragilis ssp fragilis 1936B; test: as above; type: cell-based; conditions: 24-hour incubation
[17] = test system: Bacteriodes fragilis ssp thetaiotaomicron; test: as above; type: cell-based; conditions: 24-hour incubation
[18] = test system: Bacteriodes corrodens; test: as above; type: cell-based; conditions: 24-hour incubation
[19] = test system: Fusobacterium necrophorum; test: as above; type: cell-based; conditions: 24-hour incubation
[20] = test system: E. tenella AND E. acervulina; test: Anticoccidial feeding test in chicks, E. tenella and E. acervulina (Table XII); type: in vivo; set-up: Average Lesion Score, Intestinal / Average Lesion Score, Cecal: scale not given here; conditions: for Percent Mortality: due to coccidiosis; for Percent Weight Gain: normal controls = 100%
Method: ^1 6 replicates; 5 birds each
^2 Infection inoculum 48 hours post-medication onset

[21] = test system: rumen flora; test: Rumen volatile-fatty-acid (VFA) production test in flasks (Table XIV); conditions: 1 mcg/ml
[22] = test system: ruminal propionate concentration; test: Ruminal VFA in fistulated feed-lot cattle (Table XV); type: in vivo; conditions: 30 g/ton, 24 days
Source text: The procedure used in testing cattle in this manner is also described in Raun's U.S. Pat. No. 3,839,557 (see Example 9). Table XV summarizes the results of such a test with A-32887 (Na-K salt) wherein five feed-lot cattle weighing approximately 425 kg. were in each group and the mean percent increases in ruminal propionate concentration were averaged over four analyses in a 24-day treatment period.

[23] = test system: Mexican bean beetle; test: Insecticidal activity; type: in vivo; conditions: 1000 ppm
Source text: (§2) In another aspect, the A-32887 compounds are useful as insecticides. For example, A-32887 (Na-K salt) is active against insects such as Mexican bean beetle, Southern armyworm and housefly when applied at a rate of 1000 ppm.

[24] = test system: Southern armyworm; test: Insecticidal activity; type: in vivo; conditions: 1000 ppm
Source text: as §2

[25] = test system: housefly; test: Insecticidal activity; type: in vivo; conditions: 1000 ppm
Source text: as §2

[26] = test system: ATPase; test: In vitro ATPase inhibition test using NaCl; type: biochemical
Source text: In yet another aspect, the A-32887 compounds are active as inhibitors of the enzyme ATPase. ATPase, an alkali-metal-sensitive enzyme found in cell membranes, is involved in the energy necessary for active transport. "Active transport" refers to the energy-requiring series of operations whereby intracellular and extracellular fluids maintain their compositions. Inhibitors of ATPase reduce the energy required for active transport.

[27] = test system: guinea pig left atria; test: Cardiac contractility in guinea pig left atria; conditions: 10^-5 molar
Source text: The A-32887 compounds are potential cardiotonic agents. In tests using guinea pig left atria, A-32887 (Na-K salt) increased cardiac contractility. Response to this test is expressed as a percentage of the maximal force that could be elicited by a challenge dose of norepinephrine. A-32887 (Na-K salt), at a 10^-5 molar concentration, increased cardiac contractility by 28.0 ± 7.1 percent.

[28] = test system: E. tenella, E. maxima and E. acervulina; test: Anticoccidial feeding test in chicks, E. tenella, E. maxima and E. acervulina (Table XIII); conditions: for Percent Mortality: due to coccidiosis; for Percent Weight Gain: per survivor

In the case of `CO[C@H]1CC[C@H](OC2[C@@H](C)[C@@](C)(O)O[C@H]([C@H]3CC[C@H]([C@@H]4CC[C@H]([C@@]5(C)O[C@]6(O[C@H](C[C@@H]7O[C@](O)([C@@H](O)C(=O)O)[C@@H](C)[C@H](OC)[C@@]7(C)OC)C[C@@H](OC)[C@H]6C)[C@H](C)[C@H]5OC)O4)O3)[C@H]2C)O[C@@H]1C.[K+].[Na+]` (stereo partly drawn) [A-32887 (Na-K salt)], the MIC [1] is reported as 50.00 µg/mL, the “Zone of Inhibition” value ([2]; 30 mcg/disc) is reported as 16.0 mm and the “Zone of Inhibition” value ([2]; 300 mcg/disc) is reported as 18.0 mm. The “Zone of Inhibition” value ([3]; 30 mcg/disc) was 12.0 mm, the “Zone of Inhibition” value ([3]; 300 mcg/disc) was 15.6 mm and the “Zone of Inhibition” value ([4]; 30 mcg/disc) was 14.0 mm. The “Zone of Inhibition” value ([4]; 300 mcg/disc) was 17.5 mm, the “Zone of Inhibition” value ([5]; 30 mcg/disc) was 13.7 mm and the “Zone of Inhibition” value ([5]; 300 mcg/disc) was 14.7 mm. For the same compound, the “Zone of Inhibition” value ([6]; 30 mcg/disc) was 12.7 mm, the “Zone of Inhibition” value ([6]; 300 mcg/disc) was 16.0 mm and the “Zone of Inhibition” value ([7]; 30 mcg/disc) was 15.0 mm. For the same compound, the “Zone of Inhibition” value ([7]; 300 mcg/disc) was 15.2 mm, the MIC [8] was at most 0.5 µg/mL and the MIC [9] was at most 0.5 µg/mL. It also gave an MIC [10] of at most 0.5 µg/mL, an MIC [11] of at most 0.5 µg/mL and an MIC [12] of at most 0.5 µg/mL. It also gave an MIC [13] of 1.0 µg/mL, an MIC [14] of at most 0.5 µg/mL and an MIC [15] of 2 µg/mL. The MIC [16] was 2 µg/mL, the MIC [17] was 2 µg/mL and the MIC [18] was 2 µg/mL. The MIC [19] was 32 µg/mL, the “Average Lesion Score, Cecal” value ([20]; 62 ppm) was 0.1 and the “Average Lesion Score, Intestinal” value ([20]; 62 ppm) was 0.9. The “Percent Mortality” value ([20]; 62 ppm) was 0%, the “Percent Weight Gain” value ([20]; 62 ppm) was 97% and the “Average Lesion Score, Cecal” value ([20]; 77 ppm) was 0. For the same compound, the “Average Lesion Score, Intestinal” value ([20]; 77 ppm) was 0.7, the “Percent Mortality” value ([20]; 77 ppm) was 0% and the “Percent Weight Gain” value ([20]; 77 ppm) was 90%. For the same compound, the “Average Lesion Score, Cecal” value ([20]; 100 ppm) was 0.1, the “Average Lesion Score, Intestinal” value ([20]; 100 ppm) was 0.6 and the “Percent Mortality” value ([20]; 100 ppm) was 0%. The “Percent Weight Gain” value ([20]; 100 ppm) was 85%, the “Average Lesion Score, Cecal” value ([20]; 121 ppm) was 0 and the “Average Lesion Score, Intestinal” value ([20]; 121 ppm) was 0.3. The “Percent Mortality” value ([20]; 121 ppm) was 0%, the “Percent Weight Gain” value ([20]; 121 ppm) was 73% and the “Ratio of Treated to Control, Molar % Acetate” value [21] was 0.5744. The “Ratio of Treated to Control, Molar % Butyrate” value [21] was 1.1116, the “Ratio of Treated to Control, Total VFA mM/l.” value [21] was 0.7498 and the “Ratio of Treated to Control, Molar % Propionate” value ([21]; *P<0.01) was 1.4191. The “Molar % Butyrate” value [22] was 9.6 Molar %, the “Total VFA” value [22] was 79.6 mM/l and the insecticidal activity [23] was “active”. The insecticidal activity [24] was “active”, the insecticidal activity [25] was “active” and the ATPase inhibition [26] was “shown to inhibit ATPase”. For the same compound, the “increase of cardiac contractility (percentage of maximal force elicited by norepinephrine)” value [27] was 28.0 ± 7.1%, the “Average Lesion Score, Cecal” value ([28]; 25 ppm) was 3.9 and the “Average Lesion Score, Intestinal” value ([28]; 25 ppm) was 1.1. The “Percent Mortality” value ([28]; 25 ppm) was 35%, the “Percent Weight Gain” value ([28]; 25 ppm) was 57% and the “Average Lesion Score, Cecal” value ([28]; 50 ppm) was 3.8. For the same compound, the “Average Lesion Score, Intestinal” value ([28]; 50 ppm) was 1.8, the “Percent Mortality” value ([28]; 50 ppm) was 0% and the “Percent Weight Gain” value ([28]; 50 ppm) was 79%. The “Average Lesion Score, Cecal” value ([28]; 75 ppm) was 2.0, the “Average Lesion Score, Intestinal” value ([28]; 75 ppm) was 0.9 and the “Percent Mortality” value ([28]; 75 ppm) was 0%. For the same compound, the “Percent Weight Gain” value ([28]; 75 ppm) was 90%, the “Average Lesion Score, Cecal” value ([28]; 100 ppm) was 0.1 and the “Average Lesion Score, Intestinal” value ([28]; 100 ppm) was 0. For the same compound, the “Percent Mortality” value ([28]; 100 ppm) was 0%, the Feed/Gain ([28]; 100 ppm, pens without deaths only) was 1.50 and the “Percent Weight Gain” value ([28]; 100 ppm) was 93%.
